“And” between values parts separate entries of the source, which are not always exact repeats. Equal entries are not always repeated.
Key:
CD34+ cells = test: In vitro transwell migration assay, CXCL12-induced; type: cell-based, human; settings: CXCL12 100 ng/ml, 4 hours, CD34+ cells after 3-week culture with cytokines+NA, compared to cytokines alone or non-cultured cells
Protocol: FIG. 2 is a histogram showing the effect of nicotinamide on in-vitro migration of hematopoietic cells. CXCL12 (100 ng/ml)-induced transwell migration of the purified CD34+ cells either before (non-cultured) or after 3-week culture with cytokines and nicotinamide (cytokines+NA) or cytokines alone (cytokines) (n=3, *p<0.02, **p=0.05) was measured as described hereinbelow. Note the enhanced migration of cells cultured in the presence of nicotinamide; Purified CD34+ cells were cultured in culture bags (American Fluoroseal Co., Gaithersburg, Md.) at 1×10^4 cells/ml in MEMα medium, 10% fetal calf serum (FCS) and cytokines: Thrombopoietin (TPO), interleukin-6 (IL-6), FLT-3 ligand and stem cell factor (SCF), each at a final concentration of 50 ng/ml (Perpo Tech, Inc., Rocky Hill, N.J.), with or without 5 mM nicotinamide (NA) (Sigma Aldrich, Milwaukee, Wis.) and incubated at 37° C. in a humidified atmosphere of 5% CO2 in air. […] Until week 3, the cultures were topped weekly with the same volume of fresh medium and then weekly demi-depopulated. Cell counting, colony forming unit (CFUc) assay and immunophenotype analysis were performed as described hereinbelow. […] After 4 hours, cells were collected from both chambers and counted by flow cytometry (FACSsort, Becton Dickinson and Co, San Jose, Calif., USA). […]

[1] = system: CD26/dipeptidylpeptidase IV; test: FACS analysis of CD26 membranal expression on CD34+ cells after short-term incubation; type: cell-based, human
Protocol: Cells were obtained from umbilical cord blood after normal full-term delivery (informed consent was given). Samples were collected and frozen according to Rubinstein et al. [Rubinstein et al. Proc Natl Acad Sci USA. 1995; 92 (22):10119-10122.] within 24 h postpartum. Prior to use, the cells were thawed in Dextran buffer (Sigma, St. Louis, Mo., USA) containing 2.5% human serum albumin (HAS, Bayer Corp. Elkhart, Ind., USA), layered on a Ficoll-Hypaque gradient (1.077 g/mL; Sigma), and centrifuged at 800×g for 30 min. The mononuclear cells in the interface layer were collected and washed three times in phosphate-buffered saline (PBS, Biological Industries) containing 0.5% HSA. To purify the CD34+ cells, the mononuclear cell fraction was subjected to two cycles of immunomagnetic bead separation, using a “MiniMACS CD34 progenitor cell isolation kit” (Miltenyi Biotec Bergisch, Gladbach, Germany), according to manufacturer's instructions. The purity of the CD34+ population thus obtained was 95-98%, as evaluated by flow cytometry. Percentages of progenitor cells positive for CD26 were determined by staining of CD34+ cells with anti-CD26 FITC purchased from Becton Dickinson. […] Freshly purified CD34+ cells were FACS analyzed for the expression of CD26 (T-0) then incubated±Nicotinamide 5 mM for 20 hours (T-20 hours) and FACS analyzed again.

NC(=O)c1cccnc1 [nicotinamide]
CXCL12-induced migration (CD34+ cells): significantly higher | reduction of CD26 expression ([1]; 20 hours with Nicotinamide 5 mM, compared to cells without Nicotinamide and to freshly purified CD34+ cells (T-0)): 2-3 fold | CD26+ cells (%) ([1]; freshly purified CD34+ cells incubated with Nicotinamide 5 mM for 20 hours (T-20)): 2.7% and 6%
